According to article PMC8007111, “Novel Potent Muscarinic Receptor Antagonists: Investigation on the Nature of Lipophilic Substituents in the 5- and/or 6-Positions of the 1,4-Dioxane Nucleus” (Journal of Medicinal Chemistry, 2020):
Like-named read-outs stand apart in the source and are kept apart here.

Legend:
hM1 mAChR [1] = target: T1, hM1 mAChR (Homo sapiens, UniProt P11229); experiment: [3H]NMS inhibition radioligand binding, hM1 in CHO-K1 cell membranes; settings: for ER (eudismic ratio) hM1: eutomer vs distomer
T1 construct: expressed in transfected cells; host or cells: CHO-K1 (membrane preparation)
T1 sequence (P11229 1-460): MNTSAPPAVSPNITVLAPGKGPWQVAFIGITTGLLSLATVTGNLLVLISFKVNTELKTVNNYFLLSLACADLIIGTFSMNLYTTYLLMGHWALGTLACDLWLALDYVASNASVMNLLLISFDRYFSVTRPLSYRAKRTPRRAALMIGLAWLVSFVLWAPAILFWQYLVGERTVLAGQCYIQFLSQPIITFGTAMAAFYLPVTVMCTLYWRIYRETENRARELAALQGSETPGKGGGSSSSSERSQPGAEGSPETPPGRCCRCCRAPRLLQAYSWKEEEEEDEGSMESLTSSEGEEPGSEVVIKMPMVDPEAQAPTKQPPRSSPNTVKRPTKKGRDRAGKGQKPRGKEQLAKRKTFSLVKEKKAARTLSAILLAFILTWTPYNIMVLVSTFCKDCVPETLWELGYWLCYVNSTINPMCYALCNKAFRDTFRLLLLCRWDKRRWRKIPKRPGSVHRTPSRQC

hM2 mAChR [2] = target: T2, hM2 mAChR (Homo sapiens, UniProt P08172); experiment: [3H]NMS inhibition radioligand binding, hM2 in CHO-K1 cell membranes; settings: for ER (eudismic ratio) hM2: eutomer vs distomer
T2 construct: expressed in transfected cells; host or cells: CHO-K1 (membrane preparation)
T2 sequence (P08172 1-466): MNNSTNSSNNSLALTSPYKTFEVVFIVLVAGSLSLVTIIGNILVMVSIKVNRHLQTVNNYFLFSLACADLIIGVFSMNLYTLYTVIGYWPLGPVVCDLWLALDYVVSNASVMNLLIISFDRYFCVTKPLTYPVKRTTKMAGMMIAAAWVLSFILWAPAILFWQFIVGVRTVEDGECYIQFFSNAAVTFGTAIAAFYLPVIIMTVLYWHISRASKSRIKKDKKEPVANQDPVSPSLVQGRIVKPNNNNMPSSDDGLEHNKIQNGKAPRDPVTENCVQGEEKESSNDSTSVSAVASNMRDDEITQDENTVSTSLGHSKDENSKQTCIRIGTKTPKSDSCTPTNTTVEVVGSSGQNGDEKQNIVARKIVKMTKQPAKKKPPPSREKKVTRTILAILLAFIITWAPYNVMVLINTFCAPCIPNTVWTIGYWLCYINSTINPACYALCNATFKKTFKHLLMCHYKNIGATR

hM3 mAChR [3] = target: T3, hM3 mAChR (Homo sapiens, UniProt P20309); experiment: [3H]NMS inhibition radioligand binding, hM3 in CHO-K1 cell membranes; settings: for ER (eudismic ratio) hM3: eutomer vs distomer
T3 construct: expressed in transfected cells; host or cells: CHO-K1 (membrane preparation)
T3 sequence (P20309 whole entry): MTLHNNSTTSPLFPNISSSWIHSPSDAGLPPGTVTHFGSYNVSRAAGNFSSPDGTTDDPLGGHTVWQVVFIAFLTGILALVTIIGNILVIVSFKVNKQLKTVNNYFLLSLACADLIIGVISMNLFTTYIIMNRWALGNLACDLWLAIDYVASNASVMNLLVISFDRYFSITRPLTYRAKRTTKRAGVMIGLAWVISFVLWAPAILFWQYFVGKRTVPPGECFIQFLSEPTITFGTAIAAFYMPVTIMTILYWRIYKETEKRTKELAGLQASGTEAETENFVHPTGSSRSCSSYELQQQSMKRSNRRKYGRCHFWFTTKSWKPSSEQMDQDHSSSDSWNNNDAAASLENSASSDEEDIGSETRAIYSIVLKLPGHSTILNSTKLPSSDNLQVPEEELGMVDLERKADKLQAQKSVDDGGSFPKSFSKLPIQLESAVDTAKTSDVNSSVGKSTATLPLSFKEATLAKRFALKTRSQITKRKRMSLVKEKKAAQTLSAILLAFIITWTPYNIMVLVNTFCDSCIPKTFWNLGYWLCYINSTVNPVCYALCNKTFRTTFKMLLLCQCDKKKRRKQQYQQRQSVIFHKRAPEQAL

hM4 mAChR [4] = target: T4, hM4 mAChR (Homo sapiens, UniProt P08173); experiment: [3H]NMS inhibition radioligand binding, hM4 in CHO-K1 cell membranes; settings: for ER (eudismic ratio) hM4: eutomer vs distomer
T4 construct: expressed in transfected cells; host or cells: CHO-K1 (membrane preparation)
T4 sequence (P08173 1-479): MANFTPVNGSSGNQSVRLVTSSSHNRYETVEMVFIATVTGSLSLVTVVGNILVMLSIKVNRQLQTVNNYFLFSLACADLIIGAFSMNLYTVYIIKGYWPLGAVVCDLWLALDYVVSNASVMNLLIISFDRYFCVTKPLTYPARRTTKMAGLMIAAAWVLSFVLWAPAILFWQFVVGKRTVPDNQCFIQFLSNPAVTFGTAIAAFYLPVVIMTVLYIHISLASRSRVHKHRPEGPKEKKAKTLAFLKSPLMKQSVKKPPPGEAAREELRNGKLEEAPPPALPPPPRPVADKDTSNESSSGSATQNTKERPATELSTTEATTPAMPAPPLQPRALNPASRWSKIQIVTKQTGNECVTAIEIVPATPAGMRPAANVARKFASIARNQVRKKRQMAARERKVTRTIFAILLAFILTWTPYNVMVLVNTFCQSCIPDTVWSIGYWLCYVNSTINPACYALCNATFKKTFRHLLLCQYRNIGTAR

hM5 mAChR [5] = target: T5, hM5 mAChR (Homo sapiens, UniProt P08912); experiment: [3H]NMS inhibition radioligand binding, hM5 in CHO-K1 cell membranes
T5 construct: expressed in transfected cells; host or cells: CHO-K1 (membrane preparation)
T5 sequence (P08912 1-532): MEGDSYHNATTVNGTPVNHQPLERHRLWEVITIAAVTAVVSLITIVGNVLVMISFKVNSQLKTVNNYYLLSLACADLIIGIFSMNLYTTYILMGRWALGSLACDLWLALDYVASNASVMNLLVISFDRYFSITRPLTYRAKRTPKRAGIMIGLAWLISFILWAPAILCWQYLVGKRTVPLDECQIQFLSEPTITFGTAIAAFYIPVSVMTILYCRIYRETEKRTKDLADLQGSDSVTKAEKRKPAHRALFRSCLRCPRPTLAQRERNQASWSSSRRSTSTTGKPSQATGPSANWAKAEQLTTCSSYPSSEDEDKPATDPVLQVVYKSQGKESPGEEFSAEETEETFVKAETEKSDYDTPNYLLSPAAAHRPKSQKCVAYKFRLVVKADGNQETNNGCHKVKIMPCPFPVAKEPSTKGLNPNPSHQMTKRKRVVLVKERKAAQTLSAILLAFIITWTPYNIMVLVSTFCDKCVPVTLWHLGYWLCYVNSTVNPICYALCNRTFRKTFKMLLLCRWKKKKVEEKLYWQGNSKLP

urinary bladder = tested on: urinary bladder; set-up: method as in PMID 22243489; settings: anesthetized rats; compared to oxybutynin; cited from earlier work
[6] = tested on: MSCs from mouse bone marrow; experiment: Carbachol-induced MSC viability (MTS assay); assay type: cell-based
Protocol: It is well established that bone marrow MSC behavior is influenced by a variety of signaling systems. In context, cholinergic intramural stimuli and, in particular, muscarinic signals orchestrate MSCs viability and commitment.[11],[12] Considering also the pluripotent MSC nature and their contribution to bone, blood, and systemic homeostasis,[53] viability studies on MSCs were performed to determine the functional profile of 3b, the most interesting compound in this series. […] Successively, the efficacy of 3b in contrasting cell viability induced by the well-known mAChR agonist carbachol was evaluated. […] Further research on the intracellular mechanistic outcomes of 3b on MSCs remains mandatory.
The in vitro studies were performed by using bone marrow MSCs as a model. Male BALB/c mice (Harlan Italy SrL, Milano, Italy) (8 weeks old; body weight ∼24.5 g; n = 4) were kept in a laminar-flow cage in a standardized environmental condition. Food (Harlan, Italy), and water was supplied ad libitum. Mice were sacrificed by CO2 narcosis and cervical dislocation in accordance with the recommendations of the Italian Ethical Committee and under the supervision of authorized investigators. Long bones (femurs and tibiae) were dissected and cleaned from skin, muscle, and connective tissues as much as possible. Bones were placed in a culture dish containing sterile PBS. Then, the bone cavity was flushed in DMEM with a syringe in order to collect the bone marrow cells into a 50 mL sterile tube. […] After 2 weeks of initiating culture, cells were washed with PBS, detached by trypsinization, counted, and plated at the density of 5,000 cells/well in 96 culture plates (Costar Corp., Milano, Italy) in DMEM containing 10% HIFCS, penicillin, and streptomycin.
MSCs were treated with compound 3b (from 10^–4 to 10^–10 M) for 24 h. […] At the end of each procedure, the MSCs viability was measured by MTS assay. […] The quantity of the formazan product was directly proportional to the number of living cells in culture. The colored formazan was measured by reading the absorbance at 490 nm using a […] plate reader.

hM1 mAChR [7] = target: T1, hM1 mAChR; settings: cited from earlier work
hM2 mAChR [8] = target: T2, hM2 mAChR; settings: cited from earlier work
hM3 mAChR [9] = target: T3, hM3 mAChR; settings: cited from earlier work
hM4 mAChR [10] = target: T4, hM4 mAChR; settings: cited from earlier work
hM5 mAChR [11] = target: T5, hM5 mAChR; settings: cited from earlier work
[12] = [3H]NMS, CHO-K1 cell membranes, mean ± S.E.M.

C[N+](C)(C)C[C@@H]1COC[C@@](c2ccccc2)(C2CCCCC2)O1.[I-] (relative stereo) [3a, 1-((2R*,6S*)-6-Cyclohexyl-6-phenyl-1,4-dioxan-2-yl)-N,N,N-trimethylmethanaminium Iodide]
pKi hM1 (hM1 mAChR [1]; [12]): 8.03 ± 0.09 | pKi hM2 (hM2 mAChR [2]; [12]): 7.36 ± 0.12 | pKi hM3 (hM3 mAChR [3]; [12]): 7.84 ± 0.13 | pKi hM4 (hM4 mAChR [4]; [12]): 7.51 ± 0.08 | pKi hM5 (hM5 mAChR [5]; [12]): 7.26 ± 0.05 | melting point: 270 to 271 °C

C[N+](C)(C)C[C@H]1COC[C@@](c2ccccc2)(C2CCCCC2)O1.[I-] [(2S,6S)-(−)-3b, 1-((2S,6S)-6-Cyclohexyl-6-phenyl-1,4-dioxan-2-yl)-N,N,N-trimethylmethanaminium Iodide]
pKi hM1 (hM1 mAChR [1]; [12]): 9.52 ± 0.19 | ER (eudismic ratio) hM1 (hM1 mAChR [1]): 17 | pKi hM2 (hM2 mAChR [2]; [12]): 8.22 ± 0.10 | ER (eudismic ratio) hM2 (hM2 mAChR [2]): 2 | pKi hM3 (hM3 mAChR [3]; [12]): 9.05 ± 0.10 | ER (eudismic ratio) hM3 (hM3 mAChR [3]): 35 | pKi hM4 (hM4 mAChR [4]; [12]): 9.17 ± 0.19 | ER (eudismic ratio) hM4 (hM4 mAChR [4]): 52 | pKi hM5 (hM5 mAChR [5]; [12]): 9.18 ± 0.18

CN(C)C[C@H]1COC[C@@](c2ccccc2)(C2CCCCC2)O1 [(2S,6S)-(−)-33b]
pKi hM1 (hM1 mAChR [1]; [12]): 9.10 ± 0.28 | ER (eudismic ratio) hM1 (hM1 mAChR [1]): 26 | pKi hM2 (hM2 mAChR [2]; [12]): 8.10 ± 0.10 | ER (eudismic ratio) hM2 (hM2 mAChR [2]): 9 | pKi hM3 (hM3 mAChR [3]; [12]): 9.02 ± 0.10 | ER (eudismic ratio) hM3 (hM3 mAChR [3]): 195 | pKi hM4 (hM4 mAChR [4]; [12]): 9.09 ± 0.15 | ER (eudismic ratio) hM4 (hM4 mAChR [4]): 120 | pKi hM5 (hM5 mAChR [5]; [12]): 8.83 ± 0.10 | ER (eudismic ratio) hM5 (hM5 mAChR [5]; eutomer vs distomer): 47

C[N+](C)(C)C[C@H]1COCC(c2ccccc2)(c2ccccc2)O1 [(S)-(−)-2]
reduction of volume-induced contractions of the urinary bladder (urinary bladder): more efficaciously reduced the volume-induced contractions of the urinary bladder

CN1[C@@H]2CC[C@H]1C[C@@H](OC(=O)C(CO)c1ccccc1)C2 (some centres unmarked) [atropine]
effect on carbachol-induced MSC viability ([6]; pre-incubation 1 h, then carbachol 10^–10 M for 24 h): able to contrast the increase of carbachol-induced MSC viability

C[N+](C)(C)CCOC(N)=O [carbachol]
effect of agonist on MSC viability ([6]; carbachol 10^–10 M, 24 h): increase of carbachol-induced MSC viability

C[N+](C)(C)CC1COC(c2ccccc2)(c2ccccc2)CO1 (centres unmarked) [compound 10, 1-(5,5-Diphenyl-1,4-dioxan-2-yl)-N,N,N-trimethylmethanaminium Iodide]
Ki (hM1 mAChR [1]; [3H]NMS, CHO-K1 cell membranes, mean ± S.E.M., read-out: pKi hM1 (converted)): 36.3 nM | Ki (hM2 mAChR [2]; [3H]NMS, CHO-K1 cell membranes, mean ± S.E.M., read-out: pKi hM2 (converted)): 178 nM | Ki (hM3 mAChR [3]; [3H]NMS, CHO-K1 cell membranes, mean ± S.E.M., read-out: pKi hM3 (converted)): 135 nM | Ki (hM4 mAChR [4]; [3H]NMS, CHO-K1 cell membranes, mean ± S.E.M., read-out: pKi hM4 (converted)): 155 nM | Ki (hM5 mAChR [5]; [3H]NMS, CHO-K1 cell membranes, mean ± S.E.M., read-out: pKi hM5 (converted)): 158 nM

O=C(O[C@H]1C[C@H]2CC[C@@H](C1)[N+]21CCCC1)C(O)(c1ccccc1)c1ccccc1 [trospium]
pKi hM1 (hM1 mAChR [7]): 8.46 | pKi hM2 (hM2 mAChR [8]): 8.94 | pKi hM3 (hM3 mAChR [9]): 8.99 | pKi hM4 (hM4 mAChR [10]): 8.84 | pKi hM5 (hM5 mAChR [11]): 8.22
